{"source": "patent US5747503A", "about": "“Selective inhibitors of biogenic amine transporters” (priority 1996, dated 1998)", "test_system": "extracellular dopamine in the nucleus accumbens", "assay": "In vivo microdialysis of extracellular dopamine in nucleus accumbens", "design": "species or system rat", "protocol": "FIG. 3. In vivo microdialysis of extracellular dopamine in the nucleus accumbens at concentrations of 1, 10, and 100 μM of RTI-4793-14. All values are mean ±SEM (n=4). Group comparisons are made with one-way ANOVA and the Dunnetts t-test *p<0.05 and **p<0.01.\nFIG. 4. Effects of systemic RTI-4793-14 (5 mg/kg, i.v.) on extracellular dopamine in the nucleus accumbens. All values are mean ± SEM (n=3). Group comparisons are made with one-way ANOVA and the Dunnetts t-test *p<0.05 and **p<0.01. FIG. 5. Schematic diagram for the synthesis of RTI-4793-41 and RTI-4793-48 compounds and analogs thereof.\nMale Sprague Dawley rats (350-450 g) were anesthetized with chloral hydrate (400 mg/kg; 100 mg/ml) and supplemented as required (90 mg/kg) to abolish the corneal reflex. Animals were then placed in a stereotaxic frame and dialysis probes (CMA 12, 2 mm) were implanted into the nucleus accumbens (AP:+2mm, LAT:+l.5mm, H:-7.5mm relative to bregma) according to the atlas of Paxinos and Watson (Paxinos, G. \"The rat brain in stereotaxic coordinates.\" (New York: Academic Press, 1982)). The dialysis probes were perfused with a physiological medium containing 145 mM NaCl, 4 mM KCl, 1.3 mM CaCl2, and 2 mM Na2 HPO41 the final pH of the medium being pH 7.4. The probes were dialyzed at a flow rate of […]. and samples were collected every 15 min.\nThe dialysis probes were allowed to equilibrate for 1-2 hours prior to collection of the baseline samples. […] RTI-4793-14 (1-100 μM) was then administered focally via the dialysis probe for a 15 min. sampling period at the end of which normal dialysis medium was dialyzed through the probe. Sampling continued for a further 3 samples before application of the subsequent concentration of RTI-4793-14. In a subsequent group of animals RTI-4793-14 was administered systemically (5mg/kg; 5mg/ml) via a femoral vein catheter.\nThe samples were analyzed for DA using HPLC with electrochemical detection. The mobile phase (75 mM NaH2 PO4, 1.5 mM sodium dodecyl sulphate, 20 mM EDTA, 15% acetonitrile and 12% methanol, pH 5.6) was filtered and degassed before pumping at a rate of 0.75 ml/min. through a HR-80 column (3m BDS, 80×4.6 mm). Electrochemical detection-was performed using a Coulochem II with Guard cell:+350 mV, Det 1: -75 mV, and Det 2: +22 mV.\nIn vivo microdialysis data were analyzed by using a one-way ANOVA and post-hoc Dunnetts t-test. In the focal RTI experiments in which 3 drug concentrations were administered, the baseline value for dopamine was defined as the sample preceding the application of each drug concentration. Analysis of any drug effect was therefore made comparing the baseline value prior to the drug administration.", "note": "“Also recorded” adds a separate entry of the source."}
{"smiles": "CN1[C@H](Cc2ccccc2)C[C@H]2Cc3ccccc3[C@H]21", "note": "(relative stereo) [RTI-4793-14, (2RS, 3aSR, 8aRS)-1,2,3a,8,8a-Hexahydro-2-benzyl-1-methyl-indeno[1,2-b]pyrrole]", "values": [{"measurement": "increase in extracellular DA", "setting": "focal application via the microdialysis probe, 1 μM", "result": "about 2 fold"}, {"measurement": "increase in extracellular DA", "setting": "focal application via the microdialysis probe, 10 μM", "result": "~8", "unit": "fold"}, {"measurement": "increase in extracellular DA", "setting": "intravenous, 5 mg/kg", "result": "about 2 fold"}, {"measurement": "effect on extracellular dopamine in words", "setting": "local or systemic administration in rats", "result": "increased extracellular DA; also recorded: increase the levels of dopamine in the brain"}]}
